# Laboratory results as given in US4579822A (priority 1983, dated 1986).
# Like-named read-outs stand apart in the source and are kept apart here.
# Columns and labels:
# Assay type in all cases: biochemical, Schizosaccharomyces pombe IFO 0354
# DHAK (II) [1] = assay: Substrate specificity of DHAK (II); details: for Relative activity DHAK (II) (substrate): each substrate 1.0 mM, pH 7.5, 25° C., DHA = 100%
# Protocol: (§1) The reaction mixture for measuring the substrate specificity of DHAK consists of 1.0 ml of 0.1M triethanolamine-HCl buffer (pH 7.5), 2.5 mM ATP, 4 mM MgSO4, 0.2 mM NADH, 1.3 mM phosphoenolpyruvate, 6 units of pyruvate kinase, 6 units of lactate dehydrogenase (Boehringer Mannheim GmbH), 0.01 ml of enzyme solution and each substrate (1.0 mM) as shown in Table 1. The reaction is started by adding enzyme solution and measured the decrease in the absorbance at 340 nm at 25° C. The above reaction is represented by the following equations: [drawing 4]
# DHAK (I) [2] = molecular target: T1, DHAK (I) (Schizosaccharomyces pombe, UniProt O13902); assay: Substrate specificity of DHAK (I)
# T1 construct: DHAK (I) and DHAK (II) obtained from Schizosaccharomyces pombe IFO 0354; made in house; host or cells: Schizosaccharomyces pombe IFO 0354 (natural producer, not recombinant); cell extract, DEAE-Sepharose fraction at 0.12 M KCl, then Blue-Sepharose
# T1 sequence (O13902 1-580): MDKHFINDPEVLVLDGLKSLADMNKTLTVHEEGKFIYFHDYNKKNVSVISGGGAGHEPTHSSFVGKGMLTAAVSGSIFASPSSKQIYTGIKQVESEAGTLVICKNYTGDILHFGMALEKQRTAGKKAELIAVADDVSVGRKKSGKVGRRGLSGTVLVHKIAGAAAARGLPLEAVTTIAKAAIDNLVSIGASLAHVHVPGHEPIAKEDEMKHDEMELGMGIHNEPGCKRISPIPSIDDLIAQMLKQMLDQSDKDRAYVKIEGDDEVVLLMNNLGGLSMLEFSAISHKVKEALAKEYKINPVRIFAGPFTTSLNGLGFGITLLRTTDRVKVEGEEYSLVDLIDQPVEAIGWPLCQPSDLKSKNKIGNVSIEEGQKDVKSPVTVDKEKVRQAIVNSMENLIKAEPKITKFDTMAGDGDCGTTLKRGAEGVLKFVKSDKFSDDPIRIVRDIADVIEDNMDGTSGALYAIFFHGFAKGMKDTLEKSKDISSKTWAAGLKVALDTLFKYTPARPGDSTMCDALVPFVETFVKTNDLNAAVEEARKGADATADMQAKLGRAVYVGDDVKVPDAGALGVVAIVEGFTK
# Protocol: as §1
# DHAK (II) [3] = molecular target: T2, DHAK (II) (Schizosaccharomyces pombe, UniProt O74215); assay: Specificity of DHAK (II) for phosphate donor; details: for Relative activity DHAK (II) (phosphate donor): Adenosine 5'-triphosphate = 100%
# T2 construct: DHAK (I) and DHAK (II) obtained from Schizosaccharomyces pombe IFO 0354; made in house; host or cells: Schizosaccharomyces pombe IFO 0354 (natural producer, not recombinant); cell extract, DEAE-Sepharose fraction at 0.16 M KCl, then Blue-Sepharose
# T2 sequence (O74215 1-591): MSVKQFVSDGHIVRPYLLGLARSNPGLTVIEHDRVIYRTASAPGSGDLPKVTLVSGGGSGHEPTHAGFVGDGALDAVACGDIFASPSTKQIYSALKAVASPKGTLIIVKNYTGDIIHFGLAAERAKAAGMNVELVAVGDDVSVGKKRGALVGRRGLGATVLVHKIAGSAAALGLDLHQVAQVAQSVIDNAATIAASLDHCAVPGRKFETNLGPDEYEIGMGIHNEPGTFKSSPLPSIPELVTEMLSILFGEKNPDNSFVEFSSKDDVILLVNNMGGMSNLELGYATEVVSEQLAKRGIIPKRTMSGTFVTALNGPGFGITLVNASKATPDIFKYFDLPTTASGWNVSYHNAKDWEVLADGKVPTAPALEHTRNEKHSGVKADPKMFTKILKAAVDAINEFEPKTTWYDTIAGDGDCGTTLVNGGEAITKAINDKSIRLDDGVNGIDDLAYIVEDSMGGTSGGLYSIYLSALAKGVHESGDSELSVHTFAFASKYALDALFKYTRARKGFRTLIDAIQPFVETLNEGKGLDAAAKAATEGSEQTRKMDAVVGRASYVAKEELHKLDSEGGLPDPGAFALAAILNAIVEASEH
# Protocol: (§2) The reaction is started by adding enzyme solution, and the decrease of the absorbance at 340 nm is measured spectrophotometrically at 25° C. In the blank assay, DHA is excluded from the reaction mixture. One unit of the enzyme activity is defined as the amount of enzyme which catalyzes the formation of 1 μmol NAD^+ in one minute under the above conditions. The above reaction is represented by the following equations: [drawing 3]
# DHAK (I) [4] = molecular target: T1, DHAK (I); assay: Specificity of DHAK (I) for phosphate donor; details: for Relative activity DHAK (I) (phosphate donor): Adenosine 5'-triphosphate = 100%
# Protocol: as §2
# DHAK (I) [5] = molecular target: T1, DHAK (I); assay: Specificity of DHAK (I) for divalent metal cations; details: for Relative activity DHAK (I) (metal cation): each divalent metal cation 4 mM, MgSO4 = 100%
# Protocol: as §2
# (§3) Each divalent metal cation (4 mM) was added to the reaction mixture and the activity of the enzyme was measured.
# DHAK (II) [6] = molecular target: T2, DHAK (II); assay: Specificity of DHAK (II) for divalent metal cations; details: each divalent metal cation 4 mM; MgSO4 = 100%
# Protocol: as §2, §3
# [7] = pH 7.5, read-out: Relative activity DHAK (I) (substrate)
smiles,measurement,setting,value
O=CC(O)CO (racemic) [DL-Glyceraldehyde],Relative activity DHAK (II) (substrate),DHAK (II) [1],12%
same,Action of DHAK (II) on substrate (in words),DHAK (II) [1]; summary of Table 1,slightly
same,activity at 1000 µM,DHAK (I) [2]; [7],27%
same,Action of DHAK (I) on substrate (in words),DHAK (I) [2]; summary of Table 1,slightly
O=C(O)C(O)CO (racemic) [DL-Glyceric acid],Relative activity DHAK (II) (substrate),DHAK (II) [1],0%
same,activity at 1000 µM,DHAK (I) [2]; pH 7.5; read-out: Relative activity DHAK (I) (substrate),0%
"CC(O)CO (stereo not shown) [1,2-Propanediol]",Relative activity DHAK (II) (substrate),DHAK (II) [1],0%
same,activity at 1000 µM,DHAK (I) [2]; [7],0%
"OCCCO [1,3-Propanediol]",Relative activity DHAK (II) (substrate),DHAK (II) [1],0%
same,activity at 1000 µM,DHAK (I) [2]; [7],0%
CC(=O)C(C)O (stereo not shown) [Acetoin],Relative activity DHAK (II) (substrate),DHAK (II) [1],0%
same,activity at 1000 µM,DHAK (I) [2]; [7],0%
CC(=O)CO [Acetol],Relative activity DHAK (II) (substrate),DHAK (II) [1],0%
same,activity at 1000 µM,DHAK (I) [2]; [7],0%
Nc1ncnc2c1ncn2[C@@H]1O[C@H](COP(=O)(O)OP(=O)(O)OP(=O)(O)O)[C@@H](O)[C@H]1O [Adenosine 5'-triphosphate],Relative activity DHAK (II) (phosphate donor),DHAK (II) [3],100%
same,Phosphate donor ranking for DHAK (II) (in words),DHAK (II) [3]; summary of Table 2,best phosphate donor
same,Relative activity DHAK (I) (phosphate donor),DHAK (I) [4],100%
same,Phosphate donor ranking for DHAK (I) (in words),DHAK (I) [4]; summary of Table 2,best phosphate donor
[Ca+2].[Cl-].[Cl-] [CaCl2],Metal cation ranking for DHAK (I) (in words),"DHAK (I) [5]; cation 4 mM, summary of Table 3",maximum activity
same,Relative activity DHAK (I) (metal cation),DHAK (I) [5],125%
same,Relative activity DHAK (II) (metal cation),DHAK (II) [6],44%
[Cl-].[Cl-].[Co+2] [CoCl2],Relative activity DHAK (I) (metal cation),DHAK (I) [5],29%
same,Relative activity DHAK (II) (metal cation),DHAK (II) [6],22%
Nc1ccn([C@@H]2O[C@H](COP(=O)(O)OP(=O)(O)OP(=O)(O)O)[C@@H](O)[C@H]2O)c(=O)n1 [Cytidine 5'-triphosphate],Relative activity DHAK (II) (phosphate donor),DHAK (II) [3],0%
same,Relative activity DHAK (I) (phosphate donor),DHAK (I) [4],0%
